Here are results for five compounds from ChEMBL document CHEMBL1201862, “PubChem BioAssay data set” (2004).

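1) Cells in 96-well plates. 2) Compound, 48 h, 5 concentrations. 3) Linear interpolation between surrounding doses. 4) Unreached endpoint = highest concentration. The concentration for 50% growth inhibition is given as GI50.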 Activity calls are given as the source filed them. Rule as the data show it: active = GI50 up to about 1.1 µM and inactive = higher.

Test systems include 786-0; CAKI-1; DU-145; HCT-116; HOP-62; HT-29; MDA-MB-231; MDA-MB-435; Malme-3M; NCI-H460; NCI-H522; NCI/ADR-RES; OVCAR-8; RXF 393; SF-539; TK-10; UACC-62; UO-31; MDA-N; BT-549.
Assay in all cases: NCI-60 cell line screen, 48 h

Regarding `O=[N+]([O-])c1cc(Cl)c(Cl)cc1[N+](=O)[O-]`, the GI50 with 786-0 was 2.8 µM (inactive); in the assay on CAKI-1, 2.34 µM (inactive); with DU-145, 2.07 µM (inactive); in the assay on HCT-116, 20.1 µM (inactive); in the assay on HOP-62, 2.74 µM (inactive); in the assay on HT-29, 4.16 µM (inactive). In addition, the GI50 was 2.25 µM (inactive) in the assay on MDA-MB-231; 4.07 µM (inactive) in the assay with MDA-MB-435; 2.74 µM (inactive) with Malme-3M; 3.24 µM (inactive) in the assay on NCI-H460; 1.87 µM (inactive) with NCI-H522; 4.18 µM (inactive) in the assay on NCI/ADR-RES. Besides, the GI50 in the assay with OVCAR-8 was 2.91 µM (inactive); in the assay with RXF 393 it was 1.63 µM (inactive); in the assay with SF-539, 2.13 µM (inactive); in the assay on TK-10, 3.55 µM (inactive); in the assay with UACC-62, 2.23 µM (inactive); with UO-31 it was 1.93 µM (inactive).
For the compound `Cc1c2c(n(CCc3ccc(Cl)cc3)c1C)NN=C(C#N)S2(=O)=O`, the GI50 with 786-0, in the assay on DU-145, with HCT-116, in the assay with HOP-62, in the assay with HT-29 and with MDA-MB-231 was > 100 µM (inactive) in each case. The GI50 is 42.2 µM (inactive) with MDA-MB-435; 64.7 µM (inactive) in the assay with MDA-N; 51.8 µM (inactive) in the assay with Malme-3M; > 100 µM (inactive) in the assay on NCI-H460; 61.9 µM (inactive) in the assay with NCI/ADR-RES; > 100 µM (inactive) with SF-539. In addition, the GI50 in the assay on TK-10, in the assay on UACC-62 and in the assay with UO-31 was > 100 µM (inactive) in each case.
Regarding `CCOC(=O)C(COS(C)(=O)=O)(COS(C)(=O)=O)C(=O)OCC`, the GI50 in the assay with DU-145, in the assay on HCT-116, with HT-29, with MDA-MB-231, in the assay on MDA-MB-435 and in the assay with MDA-N was > 100 µM (inactive) throughout. Also, the GI50 with NCI-H460, with NCI-H522, in the assay on NCI/ADR-RES, in the assay on OVCAR-8, in the assay on RXF 393 and in the assay on TK-10 was > 100 µM (inactive) in each case. In addition, the GI50 in the assay with UO-31 was > 100 µM (inactive).
`Nc1ncnc2c1ncn2C1CCC(CO)O1` (configuration not stated): the GI50 in the assay on CAKI-1 was > 100 µM (inactive); with HCT-116, > 100 µM (inactive); in the assay on HOP-62, > 100 µM (inactive); in the assay on HT-29, > 61.1 µM (inactive); in the assay on Malme-3M it was > 100 µM (inactive); in the assay with NCI-H460, > 100 µM (inactive). The GI50 with NCI-H522 is > 100 µM (inactive); in the assay with NCI/ADR-RES, > 77.4 µM (inactive); in the assay with OVCAR-8, > 79.4 µM (inactive); with RXF 393, > 100 µM (inactive); with SF-539, > 100 µM (inactive); in the assay with UACC-62, > 100 µM (inactive). In the assay on UO-31, the GI50 was > 100 µM (inactive).
Turning to `COc1ccc2[nH]c3c(C)c4cc[n+](C)cc4c(C)c3c2c1`, the GI50 is 1.57 µM (inactive) in the assay with BT-549; 1.39 µM (inactive) in the assay with HCT-116; 0.358 µM (active) with HOP-62; 3.23 µM (inactive) with HT-29; 0.733 µM (active) in the assay on Malme-3M; 1.26 µM (inactive) in the assay on NCI-H460. The GI50 in the assay with NCI-H522 was 0.548 µM (active); in the assay on NCI/ADR-RES, 19.3 µM (inactive); with OVCAR-8 it was 0.169 µM (active); in the assay with RXF 393, 0.798 µM (active); in the assay with SF-539, 0.24 µM (active); in the assay on UACC-62, 2.16 µM (inactive). Moreover, in the assay on UO-31, the GI50 was 38.5 µM (inactive).
